# Legend:
# human C3b = biological target: T1, human C3b (Homo sapiens, UniProt P01024); assay: SPR binding affinity and kinetics with C3b; conditions: 25° C., 1:1 Langmuir model; read-out: ka, association constant
# T1 construct: purchased Complement Technology, Inc., Tyler, Tex
# [1] = Lys cleavage fragments in NHP plasma after s.c. injection (UPLC-ESI-MS); type: in vivo, cynomolgus monkeys; conditions: 4 h after the s.c. injection of Cp40-KKK, one monkey
# [2] = test system: classical pathway activation (C3b deposition); assay: Classical pathway activation ELISA (C3b deposition) with or without rabbit vitreous; type: biochemical, human; conditions: in the absence of vitreous
# Procedure: An alternative explanation to the one presented above is that the vitreous contains additional unidentified factors that associate with the Cp40-KKK analog. To investigate whether an unidentified vitreous factor impacts the complement inhibitory activity of lysine containing compounds, complement activation assays were performed using vitreous samples. Briefly, human plasma was incubated with OVA-anti-OVA immune-complexes in the presence of serial dilutions of the Cp40-based analogs mixed with rabbit vitreous. Levels of classical pathway activation (C3b deposition) were determined by ELISA using a polyclonal anti-human C3 antibody conjugated with HRP (MP Biomedicals, Solon, Ohio) (FIG. 20).
# [3] = Solubility of Cp40-based analogs in PBS; conditions: for pH of the peptide solution in PBS: at the solubility concentration; for solubility: PBS, pH 7.4, Conc. (solubility in PBS), PBS (pH 7.4)
# [4] = Pharmacokinetics after single i.v. injection; design: species or system cynomolgus monkeys; conditions: cynomolgus monkey, in vivo, iv
# Procedure: In vivo pharmacokinetic studies were conducted, in which cynomolgus monkeys were administered single i.v. injections of mPEG(1k)-Cp40, mPEG(3k)-Cp40, Cp40-KK, or Cp40-KKK.
# [5] = Residence time in the vitreous after intravitreal injection (WES / SPR competition assay); type: in vivo, cynomolgus monkeys; conditions: single i.v.t. injection 0.5 mg; days 14-90
# Procedure: To determine the residence time of mPEG(3k)-Cp40, mPEG(1k)-Cp40, Cp40-KK, and Cp40-KKK in the vitreous of cynomolgus macaques, these Cp40-based analogs were administered intravitreally (i.v.t.) to the animals after induction of light ketamine anesthesia (10-15 mg/kg, by intramuscular injection (i.m.)) and dilation of the pupils with tropicamide/phenylephrine ophthalmic solution (see Table 6 for study design).
# For i.v.t. injection, the cynomolgus monkeys were anesthetized with a combination of ketamine (15-25 mg/kg, i.m.) and xylazine (2 mg/kg, i.m.) and the eye was cleaned with povidone-iodine solution. After application of oxybuprocaine hydrochloride solution (Benoxil® ophthalmic solution 0.4%) to the cornea as a local anesthetic, the Cp40-based analogs were administered to the animals by i.v.t. injection into either the right (G1, G3) or left (G2, G4) eye of each animal. Immediately following each injection, a single topical dose of 0.5% levofloxacin was administered. After i.v.t. injection of mPEG(3k)-Cp40, mPEG(1k)-Cp40, Cp40-KK, and Cp40-KKK, vitreous fluid samples (about 50 μL each) were withdrawn from Cp40-based analog-treated eyes on days 14, 28, 42, (G1, G2, G3, G4), 56, 73, 90 (G1, G2) (this was done either three times or six times). Samples were collected on ice and stored in a deep freezer (−79.3 to −68.5° C.) until further analysis. On day 73 and 90, about 100 μL of vitreous fluid from G1 and G2 were withdrawn. Presence and concentration of the Cp40-based analogs was determined using either the simple western technology (WES, ProteinSimple, San Jose, Calif.), or surface plasmon resonance (SPR)-based real-time measurement of binding kinetics on a Cp40-KKK immobilized chip (see detailed methods below). Similar results with regard to the intravitreal residence time and concentration levels of the test compounds were obtained regardless of the quantification method selected.
# To quantify the levels of all test compounds in vitreous samples collected at different time points following i.v.t. injection (see FIG. 15), WES analysis was performed on a WES instrument (ProteinSimple, San Jose, Calif.) using a 2 to 40 kDa Separation Module and Anti-Rabbit Detection Module according to the manufacturers' instructions. In brief, undiluted eye vitreous samples were mixed with a Fluorescent Master Mix and heated at 95° C. for 5 min. The samples, blocking reagent, primary antibodies (in house developed anti-Cp40; 1:1000 in blocking reagent), HRP-conjugated secondary antibody (anti-rabbit IgG) and chemiluminescent substrate were pipetted into the plate (part of Separation Module). The used instrument settings were: stacking and separation at 375 V for 27 min; blocking reagent for 30 min, primary and secondary antibody both for 30 min; Luminol/peroxide chemiluminescence detection for ˜15 min (exposures of 5, 15, 30, 60, 120, 240, and 480 s). The resulting electropherograms were evaluated using the Compass software (ProteinSimple, San Jose, Calif.). The following criteria were used to discriminate low peptide signals from background: The peak signal-to-noise (S/N) ratio given by the software must be ≥10, and the peak height/baseline ratio (calculated manually from the peak height and baseline values given by the software) must be equal to or greater than 3. A five-point standard curve of known concentrations (100-2,000 nM) of peptide spiked in rabbit vitreous was used to calculate peptide concentration in the vitreous samples using the Compass software (Compass Software Inc., Atlanta, Ga.). […] Shown in FIG. 15 is a representative standard curve generated using the WES system and bands obtained upon running pre-determined amounts of purified peptide spiked into rabbit vitreous samples.
# To corroborate the WES-based measurements for all test compounds, an SPR-based competition assay was developed for detecting Cp40 and Cp40 analogs in biological samples. […] The samples were heated at 95° C. for 5 min. […]
# physchem = conditions: pH 7.4, Conc. (solubility in PBS)
# [6] = Pharmacokinetics after single i.m. injection; conditions: cynomolgus monkey, in vivo, im, 25 mg/kg
# [7] = Pharmacokinetics in NHP plasma after single s.c. injection; conditions: 2 mg/kg, NHP plasma, two animals
# [8] = single s.c. 2 mg/kg, listed as Cp40-KK (SUM)
# T1 sequence (P01024 23-667 limits assumed): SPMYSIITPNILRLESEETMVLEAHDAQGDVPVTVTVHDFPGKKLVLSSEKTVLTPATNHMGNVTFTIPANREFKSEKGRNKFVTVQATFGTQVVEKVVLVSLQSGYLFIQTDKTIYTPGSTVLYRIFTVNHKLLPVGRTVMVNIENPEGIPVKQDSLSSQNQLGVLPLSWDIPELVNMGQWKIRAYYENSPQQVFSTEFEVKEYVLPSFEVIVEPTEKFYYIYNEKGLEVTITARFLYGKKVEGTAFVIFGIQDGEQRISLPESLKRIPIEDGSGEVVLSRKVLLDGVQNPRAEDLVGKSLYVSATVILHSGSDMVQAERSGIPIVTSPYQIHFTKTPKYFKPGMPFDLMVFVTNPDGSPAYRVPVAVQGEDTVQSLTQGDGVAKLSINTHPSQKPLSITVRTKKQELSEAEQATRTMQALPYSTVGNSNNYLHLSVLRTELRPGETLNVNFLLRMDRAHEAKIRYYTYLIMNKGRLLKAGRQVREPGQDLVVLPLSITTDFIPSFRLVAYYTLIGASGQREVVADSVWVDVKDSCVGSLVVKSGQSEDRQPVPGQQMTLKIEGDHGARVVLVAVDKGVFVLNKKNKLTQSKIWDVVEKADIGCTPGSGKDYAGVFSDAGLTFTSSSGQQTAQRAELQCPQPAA
# T1 sequence (P01024 749-1663 partner limits assumed): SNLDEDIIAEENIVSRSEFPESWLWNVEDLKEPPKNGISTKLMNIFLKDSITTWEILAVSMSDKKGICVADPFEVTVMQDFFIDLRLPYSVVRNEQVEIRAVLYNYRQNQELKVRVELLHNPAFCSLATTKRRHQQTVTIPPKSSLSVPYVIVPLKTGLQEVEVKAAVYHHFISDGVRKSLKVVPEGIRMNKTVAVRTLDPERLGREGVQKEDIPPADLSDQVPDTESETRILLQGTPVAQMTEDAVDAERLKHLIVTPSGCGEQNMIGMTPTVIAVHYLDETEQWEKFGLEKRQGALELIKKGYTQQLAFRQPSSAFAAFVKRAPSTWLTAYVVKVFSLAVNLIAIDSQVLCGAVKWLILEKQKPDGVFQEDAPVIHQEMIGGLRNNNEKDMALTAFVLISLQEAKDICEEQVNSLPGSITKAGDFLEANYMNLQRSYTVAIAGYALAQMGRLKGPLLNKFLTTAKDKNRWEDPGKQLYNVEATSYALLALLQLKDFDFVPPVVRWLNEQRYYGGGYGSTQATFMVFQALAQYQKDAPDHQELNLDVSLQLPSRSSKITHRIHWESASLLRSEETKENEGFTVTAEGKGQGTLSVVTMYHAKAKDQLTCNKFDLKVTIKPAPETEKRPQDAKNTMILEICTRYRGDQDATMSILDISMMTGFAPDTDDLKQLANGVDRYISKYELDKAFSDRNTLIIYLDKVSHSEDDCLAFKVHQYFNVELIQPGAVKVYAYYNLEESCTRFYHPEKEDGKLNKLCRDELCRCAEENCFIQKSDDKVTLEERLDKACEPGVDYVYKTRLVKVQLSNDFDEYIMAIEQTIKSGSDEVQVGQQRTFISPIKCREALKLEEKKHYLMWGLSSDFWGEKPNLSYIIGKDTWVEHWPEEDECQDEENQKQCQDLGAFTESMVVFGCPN
molecule,measurement,setting,value
"CC[C@H](C)[C@H](NC(=O)[C@H](N)Cc1ccc(O)cc1)C(=O)N[C@H]1CSSC[C@@H](C(=O)N(C)[C@H](C(=O)N[C@@H](CCCCN)C(N)=O)[C@@H](C)CC)NC(=O)[C@H](CCCNC(=N)N)NC(=O)[C@H](Cc2c[nH]cn2)NC(=O)[C@H](C)NC(=O)CN(C)C(=O)[C@H](Cc2c[nH]c3ccccc23)NC(=O)[C@H](CC(=O)O)NC(=O)[C@H](CCC(N)=O)NC(=O)[C@H](Cc2cn(C)c3ccccc23)NC(=O)[C@H](C(C)C)NC1=O [Cp40-K, DTyr-Ile-[Cys-Val-Trp(Me)-Gln-Asn-Trp-Sar-Ala-His-Arg-Cys]-mIle-Lys-NH2]",kon,human C3b,1.98e+06 M⁻¹ s⁻¹
same,Cp40-K detectable in plasma,[1],5 µM
same,complement classical pathway inhibitory activity,[2],inhibitory activity in a dose-dependent manner
same,pH of the peptide solution in PBS,[3],7.5
"CC[C@H](C)[C@H](NC(=O)[C@H](N)Cc1ccc(O)cc1)C(=O)N[C@H]1CSSC[C@@H](C(=O)N(C)[C@H](C(=O)N[C@@H](CCCCN)C(=O)N[C@@H](CCCCN)C(N)=O)[C@@H](C)CC)NC(=O)[C@H](CCCNC(=N)N)NC(=O)[C@H](Cc2c[nH]cn2)NC(=O)[C@H](C)NC(=O)CN(C)C(=O)[C@H](Cc2c[nH]c3ccccc23)NC(=O)[C@H](CC(=O)O)NC(=O)[C@H](CCC(N)=O)NC(=O)[C@H](Cc2cn(C)c3ccccc23)NC(=O)[C@H](C(C)C)NC1=O [Cp40-KK, DTyr-Ile-[Cys-Val-Trp(Me)-Gln-Asn-Trp-Sar-Ala-His-Arg-Cys]-mIle-Lys-Lys-NH2]",kon,human C3b,3.94e+06 M⁻¹ s⁻¹
same,Lys cleavage in plasma upon i.v. injection,[4],metabolized to minimal amounts of Cp40-K
same,half-life,[4]; single i.v. injection 2 mg/kg,49.2 h
same,detection in the vitreous at time points post-injection,[5],no longer detected on day 90
same,complement classical pathway inhibitory activity,[2],inhibitory activity in a dose-dependent manner
same,solubility,physchem,> 245 mg/mL
same,half-life,[6],~192 h
same,AUC(0-t),"[7]; male, cynomolgus monkey, plasma, sc, AUC0-t (0-120 h), single s.c. 2 mg/kg",329 µM·h
same,AUC(0-inf),"[7]; male, cynomolgus monkey, plasma, sc, AUCinf, single s.c. 2 mg/kg",597 µM·h
same,Cmax,"[7]; male, cynomolgus monkey, plasma, sc, Cmax, single s.c. 2 mg/kg",12.9 µM
same,half-life,"[7]; male, cynomolgus monkey, plasma, sc, t1/2, single s.c. 2 mg/kg",145 h
same,Tmax,"[7]; male, cynomolgus monkey, plasma, sc, tmax, single s.c. 2 mg/kg",1 h
same,t1/2,[7]; single s.c. 2 mg/kg,276 h
same,AUC0-t (0-120 h),[7]; [8],257 µM·h
same,AUCinf,[7]; [8],755 µM·h
same,Cmax,[7]; [8],9.26 µM
CC[C@H](C)[C@H](NC(=O)[C@@H](Cc1ccc(O)cc1)NC(=O)CCOCCOCCOCCOCCOCCOCCOCCOCCOCCOCCOCCOC)C(=O)N[C@H]1CSSC[C@@H](C(=O)N(C)[C@H](C(N)=O)[C@@H](C)CC)NC(=O)[C@H](CCCNC(=N)N)NC(=O)[C@H](Cc2c[nH]cn2)NC(=O)[C@H](C)NC(=O)CN(C)C(=O)[C@H](Cc2c[nH]c3ccccc23)NC(=O)[C@H](CC(=O)O)NC(=O)[C@H](CCC(N)=O)NC(=O)[C@H](Cc2cn(C)c3ccccc23)NC(=O)[C@H](C(C)C)NC1=O [mPEG(528)-Cp40],kon,human C3b,1e+06 M⁻¹ s⁻¹
same,solubility,[3],2.3 mg/mL
CC[C@H](C)[C@H](NC(=O)[C@@H](Cc1ccc(O)cc1)NC(=O)CCOCCOCCOCCOCCOCCOCCOCCOCCOCCOCCOCCOCCOCCOCCOCCOCCOCCOCCOCCOCCOCCOCCOCCOC)C(=O)N[C@H]1CSSC[C@@H](C(=O)N(C)[C@H](C(N)=O)[C@@H](C)CC)NC(=O)[C@H](CCCNC(=N)N)NC(=O)[C@H](Cc2c[nH]cn2)NC(=O)[C@H](C)NC(=O)CN(C)C(=O)[C@H](Cc2c[nH]c3ccccc23)NC(=O)[C@H](CC(=O)O)NC(=O)[C@H](CCC(N)=O)NC(=O)[C@H](Cc2cn(C)c3ccccc23)NC(=O)[C@H](C(C)C)NC1=O [mPEG(1056)-Cp40],kon,human C3b,720000 M⁻¹ s⁻¹
same,solubility,[3],137 mg/mL
mPEG(1k)-Cp40: N-terminus of Cp40 coupled to polydisperse PEG chain of 1 kDa via amide coupling,AUC0-120 h,[4],304.4 to 312 µM·h
same,detection in the vitreous at time points post-injection,[5],detected at day 14 post injection but not in later time points
mPEG(2k)-Cp40: N-terminus of Cp40 coupled to polydisperse PEG chain of 2 kDa via amide coupling,pH of the peptide solution in PBS,[3],7.5
